Laboratory results taken from ChEMBL document CHEMBL1201862, “PubChem BioAssay data set” (2004).
The source made the active and inactive calls.

What was measured:
Mucolipin-3 = target: T1, Mucolipin-3 (Homo sapiens, UniProt Q8TDD5); assay: Dose response cell-based high-throughput screening assay for agonists of the transient receptor potential channel ML3 (TRPML3). [Related pubchem assays: 1526, 1424, 1448 ]; type: functional
T1 sequence (Q8TDD5 whole entry): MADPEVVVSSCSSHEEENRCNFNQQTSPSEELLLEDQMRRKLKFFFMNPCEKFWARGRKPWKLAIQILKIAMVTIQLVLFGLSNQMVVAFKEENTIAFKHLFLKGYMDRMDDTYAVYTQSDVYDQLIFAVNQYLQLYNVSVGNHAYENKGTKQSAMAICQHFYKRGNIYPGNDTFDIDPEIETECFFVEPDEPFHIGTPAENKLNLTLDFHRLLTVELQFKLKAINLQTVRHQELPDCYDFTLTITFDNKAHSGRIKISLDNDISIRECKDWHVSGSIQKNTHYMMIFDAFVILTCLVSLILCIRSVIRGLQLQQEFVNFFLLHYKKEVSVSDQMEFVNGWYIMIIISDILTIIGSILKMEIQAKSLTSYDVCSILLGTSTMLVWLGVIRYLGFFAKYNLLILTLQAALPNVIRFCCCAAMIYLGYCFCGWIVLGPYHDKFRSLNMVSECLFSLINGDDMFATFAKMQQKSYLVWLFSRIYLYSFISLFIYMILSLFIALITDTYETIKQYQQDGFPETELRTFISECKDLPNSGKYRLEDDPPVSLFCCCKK

Ion channel NompC = Ion channel NompC (Danio rerio, UniProt Q7T1G6); assay: Fluorescence counterscreen assay for TRPML3 agonists: dose response cell-based high-throughput screening assay to identify agonists of the transient receptor potential channel N1 (TRPN1). [Related pubchem assays: 1526, 1424, 1448 ]; type: functional
Chain of Ion channel NompC (Q7T1G6 whole entry, the tested form may be a part): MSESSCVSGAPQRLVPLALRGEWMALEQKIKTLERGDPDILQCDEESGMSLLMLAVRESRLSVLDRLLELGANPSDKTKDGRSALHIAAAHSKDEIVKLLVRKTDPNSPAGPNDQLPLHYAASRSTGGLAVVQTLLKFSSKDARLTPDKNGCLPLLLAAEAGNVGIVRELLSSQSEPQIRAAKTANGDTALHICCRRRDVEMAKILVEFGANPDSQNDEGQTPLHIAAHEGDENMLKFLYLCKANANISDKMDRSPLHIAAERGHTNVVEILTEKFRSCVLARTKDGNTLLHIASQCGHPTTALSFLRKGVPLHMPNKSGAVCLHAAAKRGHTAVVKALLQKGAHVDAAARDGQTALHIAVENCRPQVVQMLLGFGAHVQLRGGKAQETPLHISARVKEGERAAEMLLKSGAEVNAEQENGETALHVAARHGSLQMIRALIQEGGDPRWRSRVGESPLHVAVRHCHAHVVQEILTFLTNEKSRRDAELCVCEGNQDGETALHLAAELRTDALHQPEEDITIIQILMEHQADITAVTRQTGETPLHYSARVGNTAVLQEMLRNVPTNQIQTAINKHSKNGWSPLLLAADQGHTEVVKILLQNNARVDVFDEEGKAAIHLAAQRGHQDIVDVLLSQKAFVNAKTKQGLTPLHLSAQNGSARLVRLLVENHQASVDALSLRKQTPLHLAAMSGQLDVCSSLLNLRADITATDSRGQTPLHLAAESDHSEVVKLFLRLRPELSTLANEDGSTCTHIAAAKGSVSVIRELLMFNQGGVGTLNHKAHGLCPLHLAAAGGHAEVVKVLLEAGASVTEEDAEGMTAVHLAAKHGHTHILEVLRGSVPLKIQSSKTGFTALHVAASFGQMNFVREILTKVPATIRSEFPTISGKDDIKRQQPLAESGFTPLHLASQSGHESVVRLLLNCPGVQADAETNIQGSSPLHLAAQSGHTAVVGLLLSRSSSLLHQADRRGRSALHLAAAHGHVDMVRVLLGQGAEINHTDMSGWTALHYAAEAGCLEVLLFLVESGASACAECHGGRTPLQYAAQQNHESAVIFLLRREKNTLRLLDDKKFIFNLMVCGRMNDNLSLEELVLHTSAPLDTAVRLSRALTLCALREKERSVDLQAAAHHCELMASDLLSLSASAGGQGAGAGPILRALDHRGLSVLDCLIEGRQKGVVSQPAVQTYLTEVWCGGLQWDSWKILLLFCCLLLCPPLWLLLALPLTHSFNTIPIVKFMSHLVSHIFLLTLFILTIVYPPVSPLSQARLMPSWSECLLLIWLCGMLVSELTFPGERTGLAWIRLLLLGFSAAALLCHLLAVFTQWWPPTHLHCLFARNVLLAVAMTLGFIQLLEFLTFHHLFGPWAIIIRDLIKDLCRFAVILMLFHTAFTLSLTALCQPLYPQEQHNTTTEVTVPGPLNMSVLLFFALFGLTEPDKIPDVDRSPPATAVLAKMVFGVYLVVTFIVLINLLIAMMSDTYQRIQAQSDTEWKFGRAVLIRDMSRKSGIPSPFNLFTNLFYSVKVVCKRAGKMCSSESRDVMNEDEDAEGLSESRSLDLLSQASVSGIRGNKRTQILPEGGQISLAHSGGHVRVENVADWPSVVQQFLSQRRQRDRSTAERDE

Estrogen receptor [1] = target: T2, Estrogen receptor (Homo sapiens, UniProt P03372); assay: ERα coactivator recruitment enhancers – biochemical, TR-FRET, ERα LBD, dose response (AID 737)
T2 sequence (P03372 whole entry): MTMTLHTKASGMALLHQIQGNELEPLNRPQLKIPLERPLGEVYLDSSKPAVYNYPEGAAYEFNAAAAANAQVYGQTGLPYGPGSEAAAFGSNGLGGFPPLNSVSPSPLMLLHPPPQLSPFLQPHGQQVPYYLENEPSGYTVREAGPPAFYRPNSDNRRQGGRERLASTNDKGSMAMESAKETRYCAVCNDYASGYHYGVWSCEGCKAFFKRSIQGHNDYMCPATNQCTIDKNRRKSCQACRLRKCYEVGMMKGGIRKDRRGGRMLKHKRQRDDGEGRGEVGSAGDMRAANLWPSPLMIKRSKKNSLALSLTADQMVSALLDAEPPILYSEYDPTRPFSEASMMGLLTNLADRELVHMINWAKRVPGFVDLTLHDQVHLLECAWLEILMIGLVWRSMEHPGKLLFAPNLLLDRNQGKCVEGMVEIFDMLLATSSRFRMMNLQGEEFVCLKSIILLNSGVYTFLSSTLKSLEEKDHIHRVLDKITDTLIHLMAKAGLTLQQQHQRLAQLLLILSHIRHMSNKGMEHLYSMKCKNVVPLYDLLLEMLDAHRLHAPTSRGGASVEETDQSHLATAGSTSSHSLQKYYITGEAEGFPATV

NADPH oxidase 1 = target: T3, NADPH oxidase 1 (Homo sapiens, UniProt Q9Y5S8); type: functional, cell-based;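 also: Cell-based assay with luminescence read-out, IC50 derived from inhibitor dose-response curves; intracellular ROS from endogenous NOX1 in intact HT29 colon cancer cells; potency of inhibitors that lower the ROS luminescence signal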
T3 sequence (Q9Y5S8 whole entry): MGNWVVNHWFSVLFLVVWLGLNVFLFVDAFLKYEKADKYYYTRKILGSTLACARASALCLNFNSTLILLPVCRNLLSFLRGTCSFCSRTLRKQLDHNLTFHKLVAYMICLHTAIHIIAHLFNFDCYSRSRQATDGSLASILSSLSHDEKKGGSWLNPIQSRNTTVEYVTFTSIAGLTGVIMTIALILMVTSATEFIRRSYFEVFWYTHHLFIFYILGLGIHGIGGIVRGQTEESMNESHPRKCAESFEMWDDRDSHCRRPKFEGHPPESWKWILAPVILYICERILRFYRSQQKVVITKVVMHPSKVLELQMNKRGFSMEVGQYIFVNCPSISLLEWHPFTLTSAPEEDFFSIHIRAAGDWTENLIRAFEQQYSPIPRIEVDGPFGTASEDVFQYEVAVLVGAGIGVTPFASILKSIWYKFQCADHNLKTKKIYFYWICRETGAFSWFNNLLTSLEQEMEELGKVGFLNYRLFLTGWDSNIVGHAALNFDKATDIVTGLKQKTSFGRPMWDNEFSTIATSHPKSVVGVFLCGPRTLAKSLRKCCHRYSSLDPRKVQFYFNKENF

[2] = target: E3 ubiquitin-protein ligase Mdm2 (Homo sapiens, UniProt Q00987); assay: MDM2-luc reporter signal enhancers, multi-concentration potency testing, MDM2 ubiquitin-protein ligase inhibitor program, whole-cell format, luminescence detection, 384-well microplate (AID 1394); type: functional;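 also: MDM2 E3 inhibitors raise luminescence so EC50 is for signal enhancement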
Chain of E3 ubiquitin-protein ligase Mdm2 (Q00987 whole entry): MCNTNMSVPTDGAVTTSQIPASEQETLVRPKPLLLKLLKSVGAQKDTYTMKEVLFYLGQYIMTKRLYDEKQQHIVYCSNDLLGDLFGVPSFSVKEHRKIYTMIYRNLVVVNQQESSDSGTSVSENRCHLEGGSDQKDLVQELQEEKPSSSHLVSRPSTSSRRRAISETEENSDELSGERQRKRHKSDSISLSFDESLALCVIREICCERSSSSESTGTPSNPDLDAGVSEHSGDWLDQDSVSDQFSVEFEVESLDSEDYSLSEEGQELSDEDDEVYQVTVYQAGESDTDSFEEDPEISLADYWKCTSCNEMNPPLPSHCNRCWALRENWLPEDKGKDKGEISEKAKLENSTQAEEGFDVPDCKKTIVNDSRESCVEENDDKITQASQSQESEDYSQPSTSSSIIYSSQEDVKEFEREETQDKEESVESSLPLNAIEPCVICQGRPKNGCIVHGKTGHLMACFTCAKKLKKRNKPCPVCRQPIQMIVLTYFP

[3] = Luminescent dose response cell-based high throughput screening assay for inhibitors of the Janus kinase 2 mutant JAK2V617F. [Related pubchem assays: 1446 (Primary screen.), 1521 (Confirmation assay.), 1486 (Counter screen.)]; type: functional
Kallikrein-7 = Kallikrein-7 (Homo sapiens, UniProt P49862); assay: Fluorescence Intensity-based biochemical primary high throughput dose response assay to identify activators of kallikrein-7 (K7) zymogen.
Chain of Kallikrein-7 (P49862 whole entry): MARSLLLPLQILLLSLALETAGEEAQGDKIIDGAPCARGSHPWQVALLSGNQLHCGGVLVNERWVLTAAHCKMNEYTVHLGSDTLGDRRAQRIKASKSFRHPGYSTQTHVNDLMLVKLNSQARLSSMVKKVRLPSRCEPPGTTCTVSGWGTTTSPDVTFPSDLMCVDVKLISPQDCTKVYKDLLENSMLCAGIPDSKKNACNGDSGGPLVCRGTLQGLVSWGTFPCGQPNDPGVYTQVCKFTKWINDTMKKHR

[4] = mitochondrial function rescue without frataxin homolog – Friedreich's ataxia, plus single-dose screen, dose response (AID 1465); type: functional;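 also: yeast depleted of Yfh1p frataxin homolog grown on glycerol needing respiration; WST-1 tetrazolium dye reduction as measure of cellular dehydrogenase metabolic activity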
[5] = target: T4, RNA-binding protein pos-1 (Caenorhabditis elegans, UniProt G5EF15); assay: disruptors of C. elegans POS-1 RNA interaction – biochemical, fluorescence polarization, dose response (AID 1964);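 also: purified POS-1 fused to maltose binding protein made in E. coli; potency of compounds blocking POS-1 binding to fluorescent RNA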
T4 sequence (G5EF15 whole entry): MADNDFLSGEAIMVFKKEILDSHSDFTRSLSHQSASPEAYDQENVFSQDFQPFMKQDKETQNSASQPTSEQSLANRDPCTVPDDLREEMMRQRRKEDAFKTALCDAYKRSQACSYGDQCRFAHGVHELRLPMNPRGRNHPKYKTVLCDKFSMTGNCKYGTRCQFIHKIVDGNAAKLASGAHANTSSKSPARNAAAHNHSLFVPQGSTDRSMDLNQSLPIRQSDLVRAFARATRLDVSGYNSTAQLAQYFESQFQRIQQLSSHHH

[6] = target: T5, Zinc finger protein mex-5 (Caenorhabditis elegans, UniProt Q9XUB2); assay: potency of MEX-5 RNA-binding blockers – biochemical, C. elegans, fluorescence polarization, dose response (AID 1960)
T5 sequence (Q9XUB2 whole entry): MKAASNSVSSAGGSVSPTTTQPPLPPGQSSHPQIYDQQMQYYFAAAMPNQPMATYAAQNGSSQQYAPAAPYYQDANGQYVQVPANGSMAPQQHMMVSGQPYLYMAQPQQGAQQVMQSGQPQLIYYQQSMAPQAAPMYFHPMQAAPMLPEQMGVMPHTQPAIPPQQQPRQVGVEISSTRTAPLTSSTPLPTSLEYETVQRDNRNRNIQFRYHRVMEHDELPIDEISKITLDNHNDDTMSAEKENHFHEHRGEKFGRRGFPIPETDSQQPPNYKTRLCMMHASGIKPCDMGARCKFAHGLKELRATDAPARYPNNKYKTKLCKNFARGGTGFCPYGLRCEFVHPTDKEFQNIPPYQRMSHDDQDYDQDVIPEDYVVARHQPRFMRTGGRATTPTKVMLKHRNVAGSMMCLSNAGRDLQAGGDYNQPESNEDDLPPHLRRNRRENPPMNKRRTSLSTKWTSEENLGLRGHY

Large T antigen = Large T antigen (Simian virus 40, UniProt P03070); type: functional, Betapolyomavirus macacae;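 also: Confirmatory-stage PubChem screen for compounds that inhibit SV40 T antigen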
Chain of Large T antigen (P03070 whole entry): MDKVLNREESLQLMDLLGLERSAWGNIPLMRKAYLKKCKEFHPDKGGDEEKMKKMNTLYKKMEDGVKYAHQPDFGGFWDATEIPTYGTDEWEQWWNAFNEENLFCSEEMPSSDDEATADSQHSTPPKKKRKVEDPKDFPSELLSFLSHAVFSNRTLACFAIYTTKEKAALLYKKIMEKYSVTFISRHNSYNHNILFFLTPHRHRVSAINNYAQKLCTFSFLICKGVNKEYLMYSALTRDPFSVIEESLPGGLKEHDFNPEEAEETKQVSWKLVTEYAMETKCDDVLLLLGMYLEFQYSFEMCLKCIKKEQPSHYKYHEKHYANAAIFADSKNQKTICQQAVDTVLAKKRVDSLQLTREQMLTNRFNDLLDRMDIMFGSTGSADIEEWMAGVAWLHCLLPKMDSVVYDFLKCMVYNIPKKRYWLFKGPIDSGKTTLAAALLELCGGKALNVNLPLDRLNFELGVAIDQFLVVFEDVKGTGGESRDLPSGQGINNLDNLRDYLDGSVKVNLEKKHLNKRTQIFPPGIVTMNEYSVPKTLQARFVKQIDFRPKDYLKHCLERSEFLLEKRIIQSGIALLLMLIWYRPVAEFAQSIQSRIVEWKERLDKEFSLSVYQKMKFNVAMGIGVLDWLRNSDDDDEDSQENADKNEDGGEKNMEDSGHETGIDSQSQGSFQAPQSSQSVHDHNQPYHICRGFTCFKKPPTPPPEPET

[7] = M. tuberculosis growth inhibition, HTS (AID 449762); type: functional
[8] = viability of uninfected HEp-2 cells – cell-based, HTS, cytotoxicity control for RSV inhibitor project, dose response (AID 2410); type: functional; details: human respiratory syncytial virus
Estrogen receptor [9] = target: T2, Estrogen receptor
Estrogen receptor beta [10] = target: T6, Estrogen receptor beta (Homo sapiens, UniProt Q92731);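 also: recombinant ER-beta bound to coactivator SRC1 peptide in presence of estradiol agonist; inhibitors block coactivator peptide binding and lower the FRET signal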
T6 sequence (Q92731 whole entry): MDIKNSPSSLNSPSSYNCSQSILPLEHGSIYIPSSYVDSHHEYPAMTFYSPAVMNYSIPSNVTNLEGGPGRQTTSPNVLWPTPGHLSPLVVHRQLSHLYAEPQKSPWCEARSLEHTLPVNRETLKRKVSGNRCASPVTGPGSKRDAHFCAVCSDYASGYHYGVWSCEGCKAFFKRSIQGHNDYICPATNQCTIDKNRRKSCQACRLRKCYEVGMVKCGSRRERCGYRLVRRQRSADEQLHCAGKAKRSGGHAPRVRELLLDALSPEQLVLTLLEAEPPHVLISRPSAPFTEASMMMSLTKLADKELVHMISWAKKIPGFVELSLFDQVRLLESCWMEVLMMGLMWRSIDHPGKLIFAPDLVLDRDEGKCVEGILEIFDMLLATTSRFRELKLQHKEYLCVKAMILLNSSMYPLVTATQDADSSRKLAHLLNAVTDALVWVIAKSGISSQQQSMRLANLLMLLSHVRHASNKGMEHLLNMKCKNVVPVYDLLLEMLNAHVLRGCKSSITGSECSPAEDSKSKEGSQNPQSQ

Estrogen receptor beta [11] = target: T6, Estrogen receptor beta; assay: blockers of SRC-3 recruitment to ERβ – biochemical, ELISA, streptavidin-HRP readout, orthogonal assay, confirmation (AID 1060)
[12] = target: T7, Mannose-6-phosphate isomerase (Homo sapiens, UniProt P34949); assay: MPI inhibition at elevated mannose 6-phosphate – biochemical, fluorescence intensity, high mannose 6-phosphate, primary screen (AID 1220)
T7 sequence (P34949 whole entry): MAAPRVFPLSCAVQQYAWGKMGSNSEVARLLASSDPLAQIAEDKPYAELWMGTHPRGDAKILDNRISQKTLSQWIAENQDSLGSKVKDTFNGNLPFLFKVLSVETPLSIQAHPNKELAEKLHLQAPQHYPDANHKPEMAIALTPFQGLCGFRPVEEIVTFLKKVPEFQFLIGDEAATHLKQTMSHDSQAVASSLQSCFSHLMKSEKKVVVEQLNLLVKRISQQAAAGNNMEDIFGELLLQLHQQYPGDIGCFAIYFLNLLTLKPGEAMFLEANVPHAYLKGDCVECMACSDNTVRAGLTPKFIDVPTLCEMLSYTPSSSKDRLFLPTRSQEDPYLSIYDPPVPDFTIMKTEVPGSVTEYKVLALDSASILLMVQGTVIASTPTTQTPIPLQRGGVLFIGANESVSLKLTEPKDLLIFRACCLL

[13] = target: T8, Histone-lysine N-methyltransferase NSD2 (Homo sapiens, UniProt O96028); type: biochemical
T8 sequence (O96028 whole entry): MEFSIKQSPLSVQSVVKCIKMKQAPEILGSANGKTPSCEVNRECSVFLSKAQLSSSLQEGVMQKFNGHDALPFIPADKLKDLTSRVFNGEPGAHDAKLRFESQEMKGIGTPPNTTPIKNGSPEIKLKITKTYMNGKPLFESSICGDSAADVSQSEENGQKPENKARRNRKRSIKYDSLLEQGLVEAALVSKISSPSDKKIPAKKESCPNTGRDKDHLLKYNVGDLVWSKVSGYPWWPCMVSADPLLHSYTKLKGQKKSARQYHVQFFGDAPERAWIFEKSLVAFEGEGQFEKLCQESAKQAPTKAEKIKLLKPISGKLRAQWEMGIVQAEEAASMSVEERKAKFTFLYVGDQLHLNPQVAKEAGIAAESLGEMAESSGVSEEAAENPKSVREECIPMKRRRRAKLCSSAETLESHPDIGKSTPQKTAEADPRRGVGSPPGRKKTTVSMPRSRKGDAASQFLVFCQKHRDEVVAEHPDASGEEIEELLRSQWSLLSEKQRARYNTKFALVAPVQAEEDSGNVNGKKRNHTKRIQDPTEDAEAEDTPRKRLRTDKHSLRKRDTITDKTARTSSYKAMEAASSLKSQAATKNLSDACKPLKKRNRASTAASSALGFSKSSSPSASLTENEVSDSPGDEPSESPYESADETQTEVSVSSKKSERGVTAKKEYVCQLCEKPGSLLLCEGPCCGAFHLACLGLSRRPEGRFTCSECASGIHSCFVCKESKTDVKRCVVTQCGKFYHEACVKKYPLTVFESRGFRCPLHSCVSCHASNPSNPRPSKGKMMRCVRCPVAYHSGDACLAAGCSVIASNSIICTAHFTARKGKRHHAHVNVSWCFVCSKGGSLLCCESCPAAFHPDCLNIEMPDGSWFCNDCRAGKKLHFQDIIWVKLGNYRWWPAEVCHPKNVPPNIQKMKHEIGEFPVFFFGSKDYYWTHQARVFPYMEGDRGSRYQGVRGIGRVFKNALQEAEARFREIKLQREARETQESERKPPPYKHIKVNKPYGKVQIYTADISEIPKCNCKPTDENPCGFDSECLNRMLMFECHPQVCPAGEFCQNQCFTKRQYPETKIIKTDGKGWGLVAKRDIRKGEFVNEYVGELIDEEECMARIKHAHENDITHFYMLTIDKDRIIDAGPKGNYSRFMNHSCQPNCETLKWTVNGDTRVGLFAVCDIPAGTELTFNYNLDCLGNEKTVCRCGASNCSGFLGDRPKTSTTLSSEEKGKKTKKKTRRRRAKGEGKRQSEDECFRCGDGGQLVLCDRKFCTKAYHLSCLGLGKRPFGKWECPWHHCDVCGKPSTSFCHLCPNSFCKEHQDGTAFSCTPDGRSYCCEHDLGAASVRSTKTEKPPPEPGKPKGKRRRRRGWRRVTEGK

COC(=O)C1(C(C[N+](=O)[O-])c2ccco2)C(=O)NCC1c1ccccc1 (centres undefined)
EC50 (Mucolipin-3): 7.77 µM (active)
EC50 (Ion channel NompC): > 29.9 µM (not active)

COc1cc(NC(=O)c2cc3c(=O)n(C)c4ccccc4c3n2C)cc(OC)c1OC
EC50 (Estrogen receptor [1]): 12.9 µM (not active)

O=C(Nc1ccc(Cl)cc1)Nc1ccc(Oc2ccccc2)cc1
IC50 (NADPH oxidase 1): > 17 µM (not active)

COc1ccc(S(=O)(=O)NN(C)c2ncc(C(F)(F)F)cc2Cl)cc1
EC50 [2]: 0.38 µM (not active)

O=C(Nc1cccc2c1[nH]c1ccccc12)C(F)(F)F
IC50 [3]: 2.48 µM (active)
EC50 (Kallikrein-7): 31.8 µM (inactive)

CC1(OC(=O)CCc2ccccc2)C(=O)C=C2C=C(c3ccc(C#N)cc3)N(Cc3ccco3)C=C2C1=O (centres undefined)
EC50 [4]: > 100 µM (active)

COc1ccccc1N1C(=O)NC(=O)/C(=C/c2ccc([N+](=O)[O-])s2)C1=O
EC50 [5]: 44.1 µM (active)
EC50 [6]: 23 µM (active)
IC50 (Large T antigen): > 100 µM (active)
IC50 [7]: > 100 µM (active)

Cc1ccc(S(=O)(=O)N2CCc3ccccc3C2CN2C(=O)c3ccccc3C2=O)cc1 (centres undefined)
CC50 [8]: 45.1 µM (active)
EC50 (Mucolipin-3): > 29.9 µM (not active)
EC50 (Ion channel NompC): > 29.9 µM (not active)

O=C(NCc1ccco1)c1cc2c(s1)CSC2
IC50 (Estrogen receptor [9]): 9.41 µM (active)
IC50 (Estrogen receptor beta [10]): 7.85 µM (active)
IC50 (Estrogen receptor beta [11]): 0.0368 µM (not active)

COc1ccccc1N=C(S)Nc1cccc2cnccc12
IC50 [12]: > 50 µM (not active)
AC50 [13]: 10.1 µM (active)

C1CCC(c2nn3c(-c4[nH]nc5c4CCC5)nnc3s2)CC1
IC50 (Estrogen receptor [9]): > 50 µM (not active)
IC50 (Estrogen receptor beta [10]): 10.2 µM (active)
IC50 (Estrogen receptor beta [11]): > 50 µM (not active)

CC(=O)Nc1ccccc1OC(=O)c1sc2ccccc2c1Cl
IC50 (NADPH oxidase 1): > 17 µM (not active)
